Experimental data reported in patent publication US20190059368A1, “3,5-DIMETHOXYSTILBENE ANALOGS AND USES THEREOF” (The United States of America, as represented by the …, priority 2017, published 2019).
≈ marks a conversion by molar mass, not a printed value. Like-named read-outs stand apart in the source and are kept apart here. Marks after values point to notes of the source that are not given here.

Legend:
Colletotrichum acutatum = experiment: Direct bioautography, antifungal; assay type: cell-based; conditions: Colletotrichum acutatum; 2 mM; 4 μl spotted (2 μl of the positive controls); average of 2 assays; read-out: zones of inhibition
Protocol: (§1) The analogs were tested for activity against Colletotrichum acutatum SIMMONDS, C. fragariae BROOKS, and C. gloeosporioides (PENZ) PENZ & SACC. in Penz., using a direct bioautography method as previously described by Tabanca et al. (Nat. Prod. Commun. 2008, 3, 1073) and Wang, et al. (J. Agric. Food Chem. 2013, 61, 4551). Technical grade commercial fungicide standards benomyl, cyprodinil, azoxystrobin, and captan were used at 0.9-1.61 μg/μl concentrations in 95% EtOH. After sample application, each TLC plate was subsequently sprayed with a spore suspension (3.0×10^5 spores/ml) of the fungus of interest and incubated in a moisture chamber for 4 days at 26° C. with a 12 hour photoperiod. Clear zones of fungal growth inhibition on the TLC plate indicated the presence of antifungal constituents in each extract or pure compound. The test compounds were prepared at 2 mM soln. in 95% EtOH, and 4 μl were spotted on the plates (2 μl of the positive controls).

C. fragariae = experiment: Direct bioautography, antifungal; assay type: cell-based, Colletotrichum fragariae; conditions: Colletotrichum fragariae; 2 mM; 4 μl spotted (2 μl of the positive controls); average of 2 assays; read-out: zones of inhibition
Protocol: as §1

C. gloeosporioides = experiment: Direct bioautography, antifungal; assay type: cell-based, Colletotrichum gloeosporioides; conditions: Colletotrichum gloeosporioides; 2 mM; 4 μl spotted (2 μl of the positive controls); average of 2 assays; read-out: zones of inhibition
Protocol: as §1

Colletotrichum species = experiment: Direct bioautography, antifungal (overall statement); assay type: cell-based, Colletotrichum sp.
Protocol: as §1

Ae. aegypti larvae = experiment: Larvicidal bioassay against 1-day-old Ae. aegypti larvae (screening and dose-response); assay type: in vivo, Aedes aegypti; conditions: for LC50 (LD50 converted to μM) / LD50 (95% CI) / LD90 (95% CI): 1-day-old larvae; for LC50 (LD50 converted to μM): 24 hours; for LD50 (95% CI) / LD90 (95% CI): mortality 24 hours post-treatment; for larvicidal activity (in words): screening at 100, 50 and 25 ppm
Protocol: Analogs were screened for activity against Ae. aegypti larvae following a bioassay system described in Ali, A., et al. (J. Med. Entomol. 2014, 51, 824). Ae. aegypti larvae used in these studies were from a laboratory colony maintained at the Mosquito and Fly Research Unit at the Center for Medical, Agricultural and Veterinary Entomology, USDA-ARS, Gainesville, Fla. For larval bioassays, the eggs were hatched and the larvae were maintained at a temperature of 27±2° C. and 60±10% RH with a photoperiod regimen of 12:12 hour (Light:Dark). Five 1-day-old Ae. aegypti larvae were added into a droplet of H2O to each well of 24-well plates (BD Labware, Franklin Lakes, N.J., USA) by use of a disposable 22.5-cm Pasteur pipette. A quantity of 50 μl of larval diet (2% slurry of 3:2 beef liver powder (Now Foods, Bloomingdale, Ill., USA) and Brewer's yeast (Lewis Laboratories Ltd., Westport, Conn., USA) was added to each well using a Finnpipette stepper (Thermo Fisher, Vantaa, Finland). All chemicals tested were diluted in DMSO. A quantity of 11 μl of the test chemical was added to the labeled wells, while 11 μl of DMSO was added to control treatments. After the treatment application, the plates were swirled in clockwise and counterclockwise motions and front and back and side to side five times to ensure even mixing of the chemicals. Larval mortality was recorded 24 hours post-treatment. […] Three dosages, 100, 50, and 25 ppm, were used in the screening bioassay to determine the larvicidal activity and each treatment was replicated twice. […] Each treatment was replicated ten times. LC50 Values for larvicidal data were calculated using SAS, Proc Probit. Control mortality was corrected using the Abbott's formula.

[1] = system: larvae of ORL and PR strains of Ae. aegypti; assay type: in vivo; conditions: for effectiveness against larvae (in words): ORL and PR strains; for Percent Mortality: larvae, 24 h
Protocol: (§2) Further tests were performed on compounds 11 and 12 to determine their effect on larvae and adult mosquitoes. The compounds were tested in the standard bioassays using the Orlando (ORL), pesticide-susceptible strain and the Puerto Rico (PR), pyrethroid-resistant strain of Ae. aegypti. The ORL strain has been in continuous colony since 1952 with no pesticide exposure while the resistant PR strain was colonized from egg papers collected near San Juan, PR in June, 2012. The PR strain is available as a resistant reference strain through BEIResources/CDC. Mortality was determined in the larval assays at four different concentrations (1, 0.5, 0.25, and 0.1 μg/μl) and three concentrations for adults (6.25%, 3.125%, and 1.56%). Mortality was recorded 24 h post-application, and in all assays, a negative solvent and a positive control using permethrin were utilized; tests were done in triplicate. Assays were conducted according to published procedures as described in Wanner, J. et al. (Curr. Bioact. Compd. 2015, 11, 13).

[2] = system: adults of ORL and PR strains of Ae. aegypti; experiment: Adult mosquito assay, ORL and PR strains; assay type: in vivo; conditions: both strains
Protocol: as §2

[3] = system: Cryptococcus neoformans ATCC 90113; experiment: Antimicrobial microplate assay (modified CLSI); assay type: cell-based; conditions: Cryptococcus neoformans, ATCC90113; Cr. neoformans
Protocol: (§3) All organisms were obtained from the American Type Culture Collection (ATCC; Manassas, Va., USA) and included the fungi Cryptococcus neoformans ATCC 90113 and the bacteria Staphylococcus aureus ATCC 29213, methicillin-resistant S. aureus ATCC 33591 (MRSA), and Mycobacterium intracellulare ATCC 23068. All organisms were tested using modified versions of the CLSI (formerly NCCLS) methods. For all organisms excluding My. intracellulare, optical density was used to monitor growth. Medium supplemented with 5% AlamarBlue® (BioSource International, Camarillo, Calif., USA) was utilized for growth detection of My. intracellulare. Samples (dissolved in DMSO) were serially diluted in 20% DMSO/saline and transferred (10 μl) in duplicate to 96-well flat-bottom microplates. Inocula were prepared by correcting the OD630 of microbe suspensions in Sabouraud Dextrose for Cr. neoformans, cation-adjusted Mueller-Hinton (Difco) at pH 7.3 for Staphylococcus spp., and 5% AlamarBlue® (BioSource International) in Middlebrook 7H9 broth with OADC enrichment, pH=7.0 for My. intracellulare, to afford an assay volume of 200 μl and final target inocula of: Cr. neoformans.: b 1.5×10^3, My. intracellulare: 2.0×10^6, and Staphylococcus spp.,: 5.0×10^5 CFU/ml. Final sample test concentrations were 1/100th the DMSO stock concentration. Drug controls (Ciprofloxacin (ICN Biomedicals, Ohio, USA) for bacteria and Amphotericin B (ICN Biomedicals) for fungi) were included in each assay. All organisms were read at either 530 nm using the Biotek Powerwave XS plate reader (Bio-Tek Instruments, VT) or 544ex1590em (My. intracellulare) using the Polarstar Galaxy Plate Reader (BMG LabTechnologies, Germany) before and after incubation: Staphylococcus spp. at 35° C. for 16-20 h, Cr. neoformans at 35° C. for 70-74 h, and My. intracellulare at 37° C. and 10% CO2 for 70-74 h. IC50 Values (concentrations that afford 50% inhibition relative to controls) werecalculated using XLfit 4.2 software (IDBS, Alameda, Calif.) using fit model 201.

[4] = system: Staphylococcus aureus ATCC 29213; experiment: Antimicrobial microplate assay (modified CLSI); assay type: cell-based; conditions: ATCC29213, S. aureus
Protocol: as §3, with “Drug controls (Ciprofloxacin (ICN Biomedicals, Ohio, USA) for bacteria and Amphotericin B (ICN Biomedicals) for fungi) were included in each assay.” left out

[5] = system: methicillin-resistant S. aureus ATCC 33591 (MRSA); experiment: Antimicrobial microplate assay (modified CLSI); assay type: cell-based; conditions: Staphylococcus aureus
Protocol: as §3, with “Drug controls (Ciprofloxacin (ICN Biomedicals, Ohio, USA) for bacteria and Amphotericin B (ICN Biomedicals) for fungi) were included in each assay.” left out

[6] = system: Mycobacterium intracellulare ATCC 23068; experiment: Antimicrobial microplate assay (modified CLSI, AlamarBlue); assay type: cell-based; conditions: ATCC23068, My. intracellulare
Protocol: as §3, with “Drug controls (Ciprofloxacin (ICN Biomedicals, Ohio, USA) for bacteria and Amphotericin B (ICN Biomedicals) for fungi) were included in each assay.” left out

COc1cc(/C=C/c2ccccc2)cc(OC)c1C [Compound 6a, (E)-1,3-dimethoxy-2-methyl-5-styrylbenzene]
zone of inhibition at 2000 µM (Colletotrichum acutatum): 5 mm | zone of inhibition at 2000 µM (C. fragariae): 5 mm | zone of inhibition at 2000 µM (C. gloeosporioides): 5.5 mm | inhibitory effect on Colletotrichum species (in words) (Colletotrichum species): strong inhibitory effect

COc1cc(/C=C\c2ccccc2)cc(OC)c1C [Compound 7a, (Z)-1,3-dimethoxy-2-methyl-5-styrylbenzene]
zone of inhibition at 2000 µM (Colletotrichum acutatum): 8 mm | zone of inhibition at 2000 µM (C. fragariae): 6.5 mm | zone of inhibition at 2000 µM (C. gloeosporioides): 7 mm | inhibitory effect on Colletotrichum species (in words) (Colletotrichum species): strong inhibitory effect

COc1cc(/C=C/c2ccc(O)c(CC=C(C)C)c2)cc(OC)c1 [Compound 11, (E)-4-(3,5-dimethoxystyryl)-2-(3-methylbut-2-en-1-yl)phenol]
LC50 (LD50 converted to μM) (Ae. aegypti larvae): 45.31 µM | LD50 (95% CI) (Ae. aegypti larvae): 14.7^b ppm | LD90 (95% CI) (Ae. aegypti larvae): 34.7 ppm | larvicidal activity (in words) (Ae. aegypti larvae): high larvicidal activity | effectiveness against larvae (in words) [1]: highly effective | Percent Mortality ([1]; ORL strain, 0.1 μg/μl): 100% | Percent Mortality ([1]; ORL strain, 0.25 μg/μl): 100% | Percent Mortality ([1]; ORL strain, 0.5 μg/μl): 100% | Percent Mortality ([1]; ORL strain, 1.0 μg/μl): 100% | Percent Mortality ([1]; PR strain, 0.1 μg/μl): 93.3 ± 11.5% | Percent Mortality ([1]; PR strain, 0.25 μg/μl): 100% | Percent Mortality ([1]; PR strain, 0.5 μg/μl): 100% | Percent Mortality ([1]; PR strain, 1.0 μg/μl): 100% | effectiveness against adult mosquitoes (in words) [2]: somewhat effective | IC50 [3]: 13.6 µM | MIC [3]: 30.8 µM (≈ 10 µg/mL) | IC50 [4]: 13.1 µM | MIC [4]: 30.8 µM (≈ 10 µg/mL) | IC50 [5]: 9.1 µM | MIC [5]: 15.4 µM (≈ 5 µg/mL) | IC50 [6]: 47.2 µM | MIC [6]: 61.7 µM (≈ 20 µg/mL)

COc1cc(/C=C\c2ccc(O)c(CC=C(C)C)c2)cc(OC)c1 [Compound 12, (Z)-4-(3,5-dimethoxystyryl)-2-(3-methylbut-2-en-1-yl)phenol]
LC50 (LD50 converted to μM) (Ae. aegypti larvae): 49.93 µM | LD50 (95% CI) (Ae. aegypti larvae): 16.2^b ppm | LD90 (95% CI) (Ae. aegypti larvae): 37.9 ppm | larvicidal activity (in words) (Ae. aegypti larvae): high larvicidal activity | effectiveness against larvae (in words) [1]: highly effective | Percent Mortality ([1]; ORL strain, 0.1 μg/μl): 66.7 ± 23.1% | Percent Mortality ([1]; ORL strain, 0.25 μg/μl): 93.3 ± 11.5% | Percent Mortality ([1]; ORL strain, 0.5 μg/μl): 93.3 ± 11.5% | Percent Mortality ([1]; ORL strain, 1.0 μg/μl): 93.3 ± 11.5% | Percent Mortality ([1]; PR strain, 0.1 μg/μl): 73.3 ± 11.5% | Percent Mortality ([1]; PR strain, 0.25 μg/μl): 73.3 ± 11.5% | Percent Mortality ([1]; PR strain, 0.5 μg/μl): 93.3 ± 11.5% | Percent Mortality ([1]; PR strain, 1.0 μg/μl): 93.3 ± 11.5% | effectiveness against adult mosquitoes (in words) [2]: somewhat effective | IC50 [3]: 41.8 µM | MIC [3]: 61.7 µM (≈ 20 µg/mL) | IC50 [4]: 17 µM | MIC [4]: 30.8 µM (≈ 10 µg/mL) | IC50 [5]: 13 µM | MIC [5]: 30.8 µM (≈ 10 µg/mL) | IC50 [6]: 50.4 µM | MIC [6]: 61.7 µM (≈ 20 µg/mL)
